The source of these data is patent US12527775B2 (priority 2020, dated 2026).

The target in experiment [1] is human recombinant 5-HT2A receptor (Homo sapiens (Human), UniProt P28223). The experiment in a line: biochemical. The experiment is classed as binding. As to the method: Test Example 1: 5-HT2A Receptor Binding Inhibition Test
(Each Experimental Condition)
Cell membrane: 15 μg of Jump-In HEK cell membrane (expressing human recombinant 5-HT2A receptor) per well
Assay buffer: Tris-HCl 50 mmol/L (pH 7.4) containing NaCl 120 mmol/L, MgCl2·6H2O 1 mmol/L, KCl 5 mmol/L, 0.1% BSA and CaCl2 2 mmol/L
Radioactive ligand: [^3H]-Ketanserin with a final concentration of 3 nmol/L
(§1) Non-specific ligand: Serotonin HCl with a final concentration of 500 μmol/L
(§2) The Kd value was calculated when the lot of cell membrane was changed. […] The radioactive ligand solution was serially diluted from 16 nM at a 2-fold ratio and the count was confirmed with a liquid scintillator. […] After that, filtration was performed with Cell harvester (PerkinElmer). The radioactive ligand solution was dispensed into an empty well of the GF/B UniFilter plate at 10 μL/well. […] The GF/B UniFilter plate was allowed to stand overnight at room temperature. […] The Saturation curve was drawn from the measured value, and the Kd value was calculated from the slope of the Scatchard Plot.
(§3) (Binding Test of the Compound According to the Present Invention)
(§4) After that, filtration was performed with Cell harvester (PerkinElmer).

The target of experiment [2] is human recombinant 5-HT2C receptor (Homo sapiens (Human), UniProt P28335). The experiment in a line: biochemical. The experiment is classed as binding. How it is done: Test Example 2: 5-HT2C Receptor Binding Inhibition Test
Chain of human recombinant 5-HT2C receptor (P28335 whole entry, looked up): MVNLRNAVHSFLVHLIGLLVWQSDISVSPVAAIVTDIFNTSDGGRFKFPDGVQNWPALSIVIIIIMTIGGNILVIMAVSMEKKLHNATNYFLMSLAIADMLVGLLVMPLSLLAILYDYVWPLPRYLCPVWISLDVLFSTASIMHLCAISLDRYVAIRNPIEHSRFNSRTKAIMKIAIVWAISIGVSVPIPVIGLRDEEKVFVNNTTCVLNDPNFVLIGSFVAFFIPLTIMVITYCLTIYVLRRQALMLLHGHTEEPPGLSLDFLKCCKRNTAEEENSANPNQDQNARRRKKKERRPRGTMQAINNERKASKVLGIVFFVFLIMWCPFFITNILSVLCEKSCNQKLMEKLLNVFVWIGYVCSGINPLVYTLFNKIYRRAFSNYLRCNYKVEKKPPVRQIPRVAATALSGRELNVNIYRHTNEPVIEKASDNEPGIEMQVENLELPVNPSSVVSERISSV
(Each experimental condition)
Cell membrane: 0.5 μg of Jump-In HEK cell membrane (expressing human recombinant 5-HT2C receptor) per well
Assay buffer: Tris-HCl 50 mmol/L (pH 7.4) containing NaCl 120 mmol/L, MgCl2·6H2O 1 mmol/L, KCl 5 mmol/L, 0.1% BSA and CaCl2) 2 mmol/L
Radioactive ligand: [^3H]-Mesulergine with a final concentration of 1 nmol/L
as §1, §2, §3, §4

Where [3] appears, read: [3H]-Ketanserin 3 nmol/L, Jump-In HEK cell membrane, class symbols, read-out: h-5-HT2A Ki.
Setting [4] is: human serotonin 5-HT2C receptor binding, [3H]-Mesulergine, read-out: h-5-HT2C Ki.
[5] abbreviates: [3H]-Ketanserin 3 nmol/L, Jump-In HEK cell membrane, read-out: human serotonin 5-HT2A receptor binding activity, Ki.
Setting [6] is: [3H]-Mesulergine 1 nmol/L, Jump-In HEK cell membrane, read-out: human serotonin 5-HT2C receptor binding activity, Ki.

Like-named read-outs stand apart in the source and are kept apart here. Where only a bound is given, the exact number is not on record here.

For orientation: Ki means a measure of affinity in units of concentration, obtained from inhibition or displacement. On to `CC(C)COc1ccc(CNC(=O)N(Cc2ncccc2F)[C@@H]2CCN(C)C[C@@H]2F)cc1` (racemic) [Compound I-069], for which the Ki was 10 to 100 nM in experiment [1] (setting [3]) and more than 100 nM in experiment [2] (setting [4]).
As for `CC(C)COc1ccc(CNC(=O)N(Cc2ncccc2F)[C@@H]2CCNC[C@@H]2F)cc1` (racemic) [Compound I-073], the results for the inhibitory constant (Ki) in experiment [1] (setting [3]) and in experiment [2] (setting [4]) were 10 to 100 nM and more than 100 nM, respectively.
In the case of `CC(C)COc1ccc(CNC(=O)N(Cc2ccc(F)cn2)[C@H]2CCN(C)C[C@@H]2O)cc1` (racemic) [Compound I-088], the Ki in experiment [1] (setting [5]) was 25.7 nM; in experiment [2] (setting [6]), 134 nM.
In the case of `CC(C)COc1ccc(CNC(=O)N(Cc2ccn(C)n2)C2CCNCC23CC3)cc1` (racemic) [Compound I-090], the inhibition constant (Ki) in experiment [1] (setting [3]) and in experiment [2] (setting [4]) was less than 10 nM throughout.
Regarding `CC(C)COc1ccc(CNC(=O)N(Cc2ccc(F)cn2)C2CCNCC2(F)F)cc1` (racemic) [Compound I-091], the inhibition constant Ki in experiment [1] (setting [3]) and in experiment [2] (setting [4]) was less than 10 nM in each case.
`CC(C)COc1ccc(CNC(=O)N(Cc2ccn(C)c2)[C@@H]2CCNC[C@@H]2F)cc1` (racemic) [Compound I-093]: the Ki in experiment [1] (setting [3]) and in experiment [2] (setting [4]) was less than 10 nM each time.
For the compound `Cc1cc(CN(C(=O)NCc2ccc(OCC(C)C)cc2)C2CCN(C)CC23CC3)nn1C` (racemic) [Compound I-094], the Ki in experiment [1] (setting [3]) and in experiment [2] (setting [4]) was less than 10 nM each time.
Consider `COc1ccc(CNC(=O)N(Cc2ccc(F)cn2)C2CCN(C)CC23CC3)cc1` (racemic) [Compound I-099], for which the Ki in experiment [1] and in experiment [2] was less than 10 nM each time.
For the compound `Cc1ccc(CNC(=O)N(Cc2ccc(F)cn2)C2CCN(C)CC23CC3)cc1` (racemic) [Compound I-100], the Ki in experiment [1] (setting [3]) is less than 10 nM; in experiment [2] (setting [4]), 10 to 100 nM.
The corresponding values for `Cc1ccc(CNC(=O)N(Cc2ccc(F)cn2)C2CCNCC23CC3)cc1` (racemic) [Compound I-101] are less than 10 nM and 10 to 100 nM.
The corresponding values for `COc1ccc(CNC(=O)N(Cc2cc(C)n(C)n2)C2CCN(C)CC23CC3)cc1` (racemic) [Compound I-104] are less than 10 nM and less than 10 nM.
In the case of `Cc1ccc(CNC(=O)N(Cc2cc(C)n(C)n2)C2CCN(C)CC23CC3)cc1` (racemic) [Compound I-105], the Ki in experiment [1] (setting [3]) and in experiment [2] (setting [4]) was less than 10 nM in each case.
With `CCCOc1ccc(CNC(=O)N(Cc2ccn(C)n2)C2CCNCC23CC3)cc1` (racemic) [Compound I-107], the Ki was less than 10 nM in experiment [1] (setting [3]) and 10 to 100 nM in experiment [2] (setting [4]).
As to `CC(C)COc1ccc(CNC(=O)N(Cc2ccn(C)c2)[C@@H]2CCN(C)C[C@@H]2F)cc1` (racemic) [Compound I-108], the Ki in experiment [1] (setting [3]) and in experiment [2] (setting [4]) was less than 10 nM each time.
On to `CCCOc1ccc(CNC(=O)N(Cc2cc(C)n(C)n2)C2CCN(C)CC23CC3)cc1` (racemic) [Compound I-109], for which the Ki in experiment [1] (setting [3]) and in experiment [2] (setting [4]) was less than 10 nM each time.
As for `CN1CCC(N(Cc2ccn(C)n2)C(=O)NCc2ccc(OCC3CC3)cc2)C2(CC2)C1` (racemic) [Compound I-110], the Ki in experiment [1] (setting [3]) and in experiment [2] (setting [4]) was less than 10 nM each time.
Consider `CN1CCC(N(Cc2ccn(C)n2)C(=O)NCc2ccc(OC(F)F)cc2)C2(CC2)C1` (racemic) [Compound I-111], for which the Ki in experiment [1] (setting [3]) and in experiment [2] (setting [4]) was less than 10 nM in each case.
Regarding `CC(C)COc1ccc(CNC(=O)N(Cc2ccc(F)cn2)C2CCN(C)C3(CC3)C2)cc1` (racemic) [Compound I-136], the values for the Ki in experiment [1] (setting [5]) and in experiment [2] (setting [6]) were 8.02 nM and 148 nM, respectively.
With `CC(C)COc1ccc(CNC(=O)N(Cc2ccc(Cl)cn2)C2CCN(C)CC2)cc1` [Compound I-009], the Ki is 0.291 nM in experiment [1] (setting [5]) and 7.92 nM in experiment [2] (setting [6]).
`CC(C)COc1ccc(CNC(=O)N(Cc2ccn(C)n2)C2CCN(C)CC2)cc1` [Compound I-021]: the Ki in experiment [1] (setting [5]) was determined as 0.858 nM; in experiment [2] (setting [6]), 50.7 nM.
For the compound `CC(C)COc1ccc(CNC(=O)N(Cc2cc3ccccc3cn2)C2CCN(C)CC2)cc1` [Compound I-037], the Ki in experiment [1] (setting [5]) came to 0.654 nM; in experiment [2] (setting [6]), 28.2 nM.
On to `CC(C)COc1ccc(COC(=O)N(Cc2ccc(F)cn2)C2CCN(C)CC2)cc1` [Compound I-042], for which the Ki in experiment [1] (setting [5]) was determined as 1.15 nM; in experiment [2] (setting [6]), 2.31 nM.
With `COc1ccc(CNC(=O)N(Cc2ccc(F)cn2)C2CCN(C)CC2)cc1` [Compound I-043], the Ki is 2.52 nM in experiment [1] (setting [5]) and 55.7 nM in experiment [2] (setting [6]).
Taken in the same sequence, the figures for `CC(C)COc1ccc(CC(=O)N(Cc2ccc(F)cn2)C2CCN(C)CC2)cc1` [Compound I-068] were 6.52 nM and 49.9 nM.
Turning to `CC(C)COc1ccc(CNC(=O)N(Cc2ccc(F)c3cccnc23)C2CCN(C)CC2)cc1` [Compound I-070], the values for the inhibition constant Ki in experiment [1] (setting [3]) and in experiment [2] (setting [4]) were less than 10 nM and 10 to 100 nM, respectively.
As to `CC(C)COc1ccc(CNC(=O)N(Cc2ccc(F)c3ccoc23)C2CCN(C)CC2)cc1` [Compound I-071], the Ki in experiment [1] (setting [5]) came out at 13.3 nM; in experiment [2] (setting [6]), 60.7 nM.
With `CC(C)COc1ccc(CNC(=O)N(Cc2cc3c(cn2)OCCO3)C2CCN(C)CC2)cc1` [Compound I-072], the inhibition constant (Ki) in experiment [1] (setting [5]) was determined as 219 nM; in experiment [2] (setting [6]), 617 nM.
In the case of `CC(C)COc1ccc(CNC(=O)N(Cc2cn(C)c3cccnc23)C2CCN(C)CC2)cc1` [Compound I-074], the Ki in experiment [1] (setting [3]) and in experiment [2] (setting [4]) was 10 to 100 nM each time.
Consider `CN1CCC(N(Cc2ccc(F)cn2)C(=O)NCc2cccc(O)c2)CC1` [Compound I-075], for which the Ki in experiment [1] (setting [5]) was determined as 130 nM; in experiment [2] (setting [6]) it was 1310 nM.
As for `CN1CCC(N(Cc2ccc(F)cn2)C(=O)NCc2ccccc2O)CC1` [Compound I-076], the Ki in experiment [1] (setting [5]) came to 62 nM; in experiment [2] (setting [6]), 263 nM.
With `CC(C)COc1ccc(CNC(=O)N(Cc2ncc(O)cc2F)C2CCN(C)CC2)cc1` [Compound I-077], the Ki was 10 to 100 nM in experiment [1] (setting [3]) and more than 100 nM in experiment [2] (setting [4]).
Taken in the same sequence, the figures for `Cc1cnc(CN(C(=O)NCc2ccc(OCC(C)C)cc2)C2CCN(C)CC2)cn1` [Compound I-078] were 10 to 100 nM and more than 100 nM.
Consider `CC(C)COc1ccc(CNC(=O)N(Cc2cn(C)c3ccccc23)C2CCN(C)CC2)cc1` [Compound I-079], for which the Ki in experiment [1] (setting [3]) and in experiment [2] (setting [4]) was more than 100 nM in each case.
Turning to `CC(C)COc1ccc(CNC(=O)N(Cc2ncc(F)cc2O)C2CCN(C)CC2)cc1` [Compound I-080], the Ki in experiment [1] (setting [3]) and in experiment [2] (setting [4]) was 10 to 100 nM each time.
In the case of `CC(C)COc1ccc(CNC(=O)N(Cc2ccc(F)c3cc[nH]c23)C2CCN(C)CC2)cc1` [Compound I-081], the Ki in experiment [1] (setting [3]) and in experiment [2] (setting [4]) was more than 100 nM in each case.
Regarding `CN1CCC(N(Cc2ccc(F)cn2)C(=O)NCc2ccc(Br)cc2)CC1` [Compound I-082], the Ki stood at 3.74 nM in experiment [1] (setting [5]) and 28.8 nM in experiment [2] (setting [6]).
Consider `C=Cc1ccc(CNC(=O)N(Cc2ccc(F)cn2)C2CCN(C)CC2)cc1` [Compound I-083], for which the Ki is less than 10 nM in experiment [1] (setting [3]) and 10 to 100 nM in experiment [2] (setting [4]).
Regarding `CN1CCC(N(Cc2ccc(F)cn2)C(=O)NCc2ccc(Cl)cc2)CC1` [Compound I-084], the inhibitory constant (Ki) in experiment [1] (setting [5]) is 5.61 nM; in experiment [2] (setting [6]) it was 65.2 nM.
Take `CC(C)COc1ccc(CNC(=O)N(Cc2ccc(F)cn2)[C@@H]2CCN(C)C[C@@H]2F)cc1` [Compound I-085]: the Ki in experiment [1] (setting [5]) worked out at 23.8 nM; in experiment [2] (setting [6]), 96.2 nM.
On to `CC(C)COc1ccc(CNC(=O)N(Cc2ccc(F)cn2)C2CCN(C)C(CO)C2)cc1` (stereo not shown) [Compound I-089], for which the Ki was less than 10 nM in experiment [1] (setting [3]) and 10 to 100 nM in experiment [2] (setting [4]).
Taken in the same sequence, the figures for `CN1CCC(N(Cc2ccc(F)cn2)C(=O)NCc2ccc(OCC(C)(F)F)cc2)CC1` [Compound I-092] were less than 10 nM and less than 10 nM.
For the compound `CN1CCC(N(Cc2ccc(F)cn2)C(=O)NCc2ccc(OCC(F)(F)F)cc2)CC1` [Compound I-095], the Ki in experiment [1] (setting [3]) and in experiment [2] (setting [4]) was less than 10 nM each time.
Regarding `Cc1cc(CN(C(=O)NCc2ccc(OCC(C)C)cc2)C2CCN(C)CC2)nn1C` [Compound I-096], the results for the Ki in experiment [1] (setting [3]) and in experiment [2] (setting [4]) were less than 10 nM and 10 to 100 nM, respectively.
As to `C[C@H](F)COc1ccc(CNC(=O)N(Cc2ccc(F)cn2)C2CCN(C)CC2)cc1` [Compound I-097], the figures for the Ki in experiment [1] (setting [3]) and in experiment [2] (setting [4]) were less than 10 nM and 10 to 100 nM, respectively.
Consider `C[C@@H](F)COc1ccc(CNC(=O)N(Cc2ccc(F)cn2)C2CCN(C)CC2)cc1` [Compound I-098], for which the Ki in experiment [1] (setting [3]) is less than 10 nM; in experiment [2] (setting [4]) it was 10 to 100 nM.
With `CC(C)COc1ccc(CNC(=O)N(Cc2ccc(F)cn2)[C@H]2CCN(C)C[C@H]2F)cc1` [Compound I-103], the Ki in experiment [1] (setting [3]) and in experiment [2] (setting [4]) was less than 10 nM in each case.
Consider `COc1ccc(COC(=O)N(Cc2ccn(C)c2)C2CCN(C)CC2)cc1` [Compound I-106], for which the Ki in experiment [1] (setting [3]) and in experiment [2] (setting [4]) was less than 10 nM in each case.
